Source: ChEMBL document CHEMBL6134864, “Discovery of FLT3-ITD Inhibitor Clifutinib: A Novel Biphenylacetylene Urea Derivative in Clinical Trials for the Treatment of Relapsed/Refractory FLT3-ITD+ Acute Myeloid Leukemia” (J Med Chem, 2025)
Calls of active or inactive are those of the source. No cut-off for these calls is given here.

Tests used:
[1] = Clearance in dog plasma at 1 mg/kg, iv measured up to 24 hrs by LC-MS/MS analysis; format: ADME, organism-based, Canis lupus familiaris
[2] = Cmax in NOD/SCID mouse plasma xenografted with human MV4-11 cells at […], po measured up to 24 hrs by LC-MS/MS analysis; format: ADME, organism-based; conditions: dose 1.5 mg/kg
[3] = AUC (0 to t) in NOD/SCID mouse plasma xenografted with human MV4-11 cells at 0.5 mg/kg, po measured up to 24 hrs by LC-MS/MS analysis; format: ADME, organism-based
[4] = system: PC-3; assay: cells; conditions: Homo sapiens, PC-3, 72 h
Description: Antiproliferative activity against human PC-3 cells assessed as inhibition of cell growth incubated for 72 hrs by celltiter-glo luminescent cell viability assay

[5] = AUC last in monkey plasma at 1 mg/kg, iv measured up to 24 hrs by LC-MS/MS analysis; format: ADME, organism-based, Macaca mulatta; conditions: rhesus monkey, in vivo
[6] = system: Receptor-type tyrosine-protein kinase FLT3 (Homo sapiens), P36888 [UNDEFINED MUTATION]; assay: Inhibition of FLT3 in human MV4-11 cells harbouring FLT3-ITD mutant assessed as inhibition of FLT3 phosphorylation level measured after 2 hrs by Western blot analysis; format: cell-based; conditions: dose 1-1000 nM
[7] = system: DU-145; assay: cells; conditions: Homo sapiens, DU-145, 72 h
Description: Antiproliferative activity against human DU-145 cells assessed as inhibition of cell growth incubated for 72 hrs by celltiter-glo luminescent cell viability assay

[8] = AUC last in monkey plasma at 5 mg/kg, po measured up to 24 hrs by LC-MS/MS analysis; format: ADME, organism-based, Macaca mulatta; conditions: rhesus monkey, in vivo
[9] = Toxicity in NOD/SCID mouse assessed as effect on body weight at 20 mg/kg/day, po measured for 7 days; format: organism-based; conditions: in vivo, 168 h, time 7 day
[10] = AUClast in rat plasma at 5 mg/kg, po measured up to 24 hrs by LC-MS/MS analysis; format: ADME, organism-based
[11] = system: BaF3; assay: cells; conditions: Mus musculus, BaF3, 72 h
[12] = system: U-251; assay: cells; conditions: Homo sapiens, U-251, 72 h
Description: Antiproliferative activity against human U-251 cells assessed as inhibition of cell growth incubated for 72 hrs by celltiter-glo luminescent cell viability assay

[13] = Half life in NOD/SCID mouse plasma xenografted with human MV4-11 cells at 4.5 mg/kg, po measured up to 24 hrs by LC-MS/MS analysis; format: ADME, organism-based
[14] = molecular target: Cytochrome P450 2C19 (Homo sapiens, UniProt P33261); assay: Inhibition of CYP2C19 in human liver microsomes by UPLC-MS/MS analysis; format: ADME, Microsome
[15] = Tmax in NOD/SCID mouse tumor xenografted with human MV4-11 cells at 4.5 mg/kg, po measured up to 24 hrs by LC-MS/MS analysis; format: ADME, organism-based, Neoplasm
[16] = Volume of distribution at steady state in mouse plasma at 2 mg/kg, iv measured up to 24 hrs by LC-MS/MS analysis; format: ADME, organism-based; conditions: read-out: Vdss
[17] = system: Receptor-type tyrosine-protein kinase FLT3 (Homo sapiens), P36888 [UNDEFINED MUTATION]; assay: Inhibition of FLT3 in human MV4-11 cells harbouring FLT3-ITD mutant assessed as effect on ERK protein level at 1 to 1000 nM measured after 2 hrs by Western blot analysis; format: cell-based; conditions: dose 1-1000 nM
[18] = Clearance in mouse plasma at 2 mg/kg, iv measured up to 24 hrs by LC-MS/MS analysis; format: ADME, organism-based
[19] = system: BaF3; assay: Antiproliferative activity against wild type mouse BaF3 cells assessed as inhibition of cell growth incubated for 72 hrs by celltiter-glo luminescent cell viability assay; format: functional, cell-based; conditions: BaF3, 72 h
[20] = system: A2780; assay: cells; conditions: Homo sapiens, A2780, 72 h
Description: Antiproliferative activity against human A2780 cells assessed as inhibition of cell growth incubated for 72 hrs by celltiter-glo luminescent cell viability assay

[21] = system: BaF3; assay: cells; conditions: Mus musculus, BaF3, 72 h; remark: listed apart in the source
[22] = AUC last in mouse plasma at 10 mg/kg, po measured up to 24 hrs by LC-MS/MS analysis; format: ADME, organism-based
[23] = AUC last in mouse plasma at 2 mg/kg, iv measured up to 24 hrs by LC-MS/MS analysis; format: ADME, organism-based
[24] = Antitumor activity against human […] cells harbouring FLT3-ITD xenografted in NOD/SCID mouse model assessed as tumor regression rate at 20 mg/kg/day, po measured for 8 days by caliper analysis relative to control; format: functional, MV4-11; conditions: time 8 day
[25] = system: BaF3; assay: cells; conditions: Mus musculus, BaF3, 72 h; remark: listed apart in the source
[26] = system: BaF3; assay: Antiproliferative activity against mouse BaF3 cells harbouring FLT3-ITD-Y842H mutant assessed as inhibition of cell growth incubated for 72 hrs by celltiter-glo luminescent cell viability assay; format: functional, cell-based; conditions: BaF3, 72 h
[27] = system: BaF3; assay: cells; conditions: Mus musculus, BaF3, 72 h; remark: listed apart in the source
[28] = AUC last in dog plasma at 5 mg/kg, po measured up to 24 hrs by LC-MS/MS analysis; format: ADME, organism-based, Canis lupus familiaris
[29] = system: NCI-H460; assay: cells; conditions: Homo sapiens, NCI-H460, 72 h
Description: Antiproliferative activity against human NCI-H460 cells assessed as inhibition of cell growth incubated for 72 hrs by celltiter-glo luminescent cell viability assay

[30] = system: SK-OV-3; assay: cells; conditions: Homo sapiens, SK-OV-3, 72 h
Description: Antiproliferative activity against human SK-OV-3 cells assessed as inhibition of cell growth incubated for 72 hrs by celltiter-glo luminescent cell viability assay

[31] = Tmax in mouse plasma at 2 mg/kg, iv measured up to 24 hrs by LC-MS/MS analysis; format: ADME, organism-based
[32] = system: BaF3; assay: Antiproliferative activity against mouse BaF3 cells harbouring FLT3-ITD-F691I mutant assessed as inhibition of cell growth incubated for 72 hrs by celltiter-glo luminescent cell viability assay; format: functional, cell-based; conditions: BaF3, 72 h
[33] = system: MV4-11; assay: Induction of apoptosis in human MV4-11 cells harbouring FLT3-ITD mutant measured after 48 to 72 hrs by annexin V and PI staining based flow cytometry analysis; format: functional, cell-based; conditions: dose 1-100 nM, time 48-72 hrs
[34] = system: K562; assay: cells; conditions: Homo sapiens, K562, 72 h
Description: Antiproliferative activity against human K562 cells assessed as inhibition of cell growth incubated for 72 hrs by celltiter-glo luminescent cell viability assay

[35] = Half life in rat plasma at 5 mg/kg, po measured up to 24 hrs by LC-MS/MS analysis; format: ADME, organism-based
[36] = molecular target: Cytochrome P450 2B6 (Homo sapiens, UniProt P20813); assay: Inhibition of CYP2B6 in human liver microsomes by UPLC-MS/MS analysis; format: ADME, Microsome
[37] = system: 786-0; assay: cells; conditions: Homo sapiens, 786-0, 72 h
Description: Antiproliferative activity against human 786-0 cells assessed as inhibition of cell growth incubated for 72 hrs by celltiter-glo luminescent cell viability assay

[38] = Cmax in rat plasma at 5 mg/kg, po measured up to 24 hrs by LC-MS/MS analysis; format: ADME, organism-based
[39] = Tmax in monkey plasma at 1 mg/kg, iv measured up to 24 hrs by LC-MS/MS analysis; format: ADME, organism-based, Macaca mulatta; conditions: rhesus monkey
[40] = system: OVCAR-3; assay: cells; conditions: Homo sapiens, OVCAR-3, 72 h
Description: Antiproliferative activity against human OVCAR-3 cells assessed as inhibition of cell growth incubated for 72 hrs by celltiter-glo luminescent cell viability assay

[41] = system: BaF3; assay: Antiproliferative activity against mouse BaF3 cells harbouring FLT3-ITD-Y842R mutant assessed as inhibition of cell growth incubated for 72 hrs by celltiter-glo luminescent cell viability assay; format: functional, cell-based; conditions: BaF3, 72 h
[42] = Cmax in NOD/SCID mouse tumor xenografted with human MV4-11 cells at 0.5 mg/kg, po measured up to 24 hrs by LC-MS/MS analysis; format: ADME, organism-based, Neoplasm
[43] = system: MOLM-13; assay: Antitumor activity against human MOLM-13 cells xenografted in NOD/SCID mouse model assessed as tumor growth inhibition at 4.5 mg/kg/day, po by caliper analysis relative to control; format: functional; conditions: read-out: TGI

Chain of Receptor-type tyrosine-protein kinase FLT3 (Homo sapiens), P36888 [UNDEFINED MUTATION] (P36888 whole entry, looked up, change not shown): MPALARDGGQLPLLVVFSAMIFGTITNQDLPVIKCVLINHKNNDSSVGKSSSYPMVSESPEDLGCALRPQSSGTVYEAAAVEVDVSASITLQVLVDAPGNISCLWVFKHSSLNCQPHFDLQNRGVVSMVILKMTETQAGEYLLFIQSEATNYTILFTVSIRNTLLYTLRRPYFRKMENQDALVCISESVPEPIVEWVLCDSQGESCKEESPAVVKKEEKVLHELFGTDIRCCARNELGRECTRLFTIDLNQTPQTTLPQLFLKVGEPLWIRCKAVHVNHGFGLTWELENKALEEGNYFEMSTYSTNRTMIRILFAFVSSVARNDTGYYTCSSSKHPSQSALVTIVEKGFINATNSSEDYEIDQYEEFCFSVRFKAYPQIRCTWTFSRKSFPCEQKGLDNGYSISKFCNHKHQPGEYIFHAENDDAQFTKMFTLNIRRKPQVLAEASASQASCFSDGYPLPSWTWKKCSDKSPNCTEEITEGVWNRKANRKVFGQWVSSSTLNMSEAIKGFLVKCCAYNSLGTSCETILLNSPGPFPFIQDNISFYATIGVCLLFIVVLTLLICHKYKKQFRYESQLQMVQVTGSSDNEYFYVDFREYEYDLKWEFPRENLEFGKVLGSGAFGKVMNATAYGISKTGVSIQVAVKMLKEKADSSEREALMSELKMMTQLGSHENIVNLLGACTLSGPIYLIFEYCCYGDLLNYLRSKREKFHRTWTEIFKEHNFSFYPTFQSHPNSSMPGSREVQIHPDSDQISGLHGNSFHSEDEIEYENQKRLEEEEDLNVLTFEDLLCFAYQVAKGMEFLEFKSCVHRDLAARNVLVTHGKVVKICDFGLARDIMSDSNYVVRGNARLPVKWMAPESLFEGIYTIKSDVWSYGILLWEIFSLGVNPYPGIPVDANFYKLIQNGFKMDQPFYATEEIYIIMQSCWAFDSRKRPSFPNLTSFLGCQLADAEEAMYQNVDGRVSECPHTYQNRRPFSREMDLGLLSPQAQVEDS
Chain of Cytochrome P450 2C19 (P33261 whole entry): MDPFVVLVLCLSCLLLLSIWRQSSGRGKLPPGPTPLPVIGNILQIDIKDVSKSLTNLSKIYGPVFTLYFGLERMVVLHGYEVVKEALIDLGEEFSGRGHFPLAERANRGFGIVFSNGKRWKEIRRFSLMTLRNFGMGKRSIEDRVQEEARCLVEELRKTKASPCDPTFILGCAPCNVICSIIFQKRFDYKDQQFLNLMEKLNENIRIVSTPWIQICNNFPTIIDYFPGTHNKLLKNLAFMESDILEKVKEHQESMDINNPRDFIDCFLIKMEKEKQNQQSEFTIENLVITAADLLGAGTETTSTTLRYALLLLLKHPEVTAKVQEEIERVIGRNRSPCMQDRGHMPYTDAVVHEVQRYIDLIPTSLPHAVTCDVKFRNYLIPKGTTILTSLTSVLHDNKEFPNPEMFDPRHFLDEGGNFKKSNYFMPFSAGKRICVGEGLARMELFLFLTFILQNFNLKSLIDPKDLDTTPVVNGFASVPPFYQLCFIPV
Chain of Cytochrome P450 2B6 (P20813 whole entry): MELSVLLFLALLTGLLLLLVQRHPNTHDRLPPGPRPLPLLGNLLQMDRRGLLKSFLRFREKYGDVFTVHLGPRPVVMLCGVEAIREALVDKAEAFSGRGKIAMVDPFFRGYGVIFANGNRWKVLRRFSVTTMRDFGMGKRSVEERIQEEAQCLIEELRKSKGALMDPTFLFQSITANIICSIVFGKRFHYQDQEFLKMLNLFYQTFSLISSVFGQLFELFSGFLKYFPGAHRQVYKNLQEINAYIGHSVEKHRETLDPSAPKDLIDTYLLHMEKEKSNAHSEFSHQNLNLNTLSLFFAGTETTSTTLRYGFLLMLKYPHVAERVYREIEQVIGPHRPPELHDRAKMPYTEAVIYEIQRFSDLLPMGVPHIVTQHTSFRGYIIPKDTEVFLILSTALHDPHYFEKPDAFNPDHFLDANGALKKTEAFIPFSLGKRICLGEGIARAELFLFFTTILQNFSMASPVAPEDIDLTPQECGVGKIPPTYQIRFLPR

clearance [1]: 11.3 mL/min/kg
Cmax at 24 h [2]: 52.8 ng/mL
AUC(0-t) at 24 h [3]: 58.9 ng·h/mL
IC50 [4]: 7000 nM
AUClast [5]: 10100 ng·h/mL
inhibition [6]: Dose-dependent-effect
IC50 [7]: > 10000 nM
AUClast [8]: 10800 ng·h/mL
AUC(0-t) at 24 h [10]: 8310 ng·h/mL
IC50 [11]: 2.9 nM
IC50 [12]: > 10000 nM
half-life [13]: 3.82 h
IC50 [14]: > 33300 nM
Tmax [15]: 6 h
Vd [16]: 1.36 L/kg
inhibition [17]: inactive
clearance [18]: 18.9 mL/min/kg
IC50 [19]: > 1000 nM
IC50 [20]: 7200 nM
IC50 [21]: 74.7 nM
AUC(0-t) at 24 h [22]: 4380 ng·h/mL
AUC(0-t) at 24 h [23]: 1740 ng·h/mL
IC50 [25]: 5.8 nM
IC50 [26]: 38 nM
IC50 [27]: 4.1 nM
AUC(0-t) at 24 h [28]: 4870 ng·h/mL
IC50 [29]: 7800 nM
IC50 [30]: > 10000 nM
Tmax [31]: 4.98 min
IC50 [32]: 154 nM
IC50 [34]: > 10000 nM
half-life [35]: 4.45 h
IC50 [36]: > 33300 nM
IC50 [37]: 3400 nM
Cmax [38]: 895 ng/mL
Tmax [39]: 4.98 min
IC50 [40]: > 10000 nM
IC50 [41]: 21.8 nM
Cmax [42]: 23.3 ng/mL
SMILES: CC(C)(C)c1cc(NC(=O)Nc2ccc(C#Cc3ccc(OCCCN4CCOCC4)cc3)cc2)no1
Activity [9]: Non-toxic
Activity [24]: 85.4%
Activity [33]: Dose-dependent-effect
inhibition in vivo at 4.5 mg/kg/day [43]: 94%
